The results in this text go back to PMC6081452, “Downstream Products are Potent Inhibitors of the Heparan Sulfate 2-O-Sulfotransferase” (Scientific Reports, 2018).

Numbering of substitutions follows the chain as printed.

Holding throughout (set-up): species or system chicken
One assay addresses T1, non-glyc-HS2ST H142K (Gallus gallus, UniProt Q76KB1, H142K).
T1 construct: made in house; host or cells: E. coli Origami B (DE3)
T1 sequence (Q76KB1 69-356 H142K limits assumed): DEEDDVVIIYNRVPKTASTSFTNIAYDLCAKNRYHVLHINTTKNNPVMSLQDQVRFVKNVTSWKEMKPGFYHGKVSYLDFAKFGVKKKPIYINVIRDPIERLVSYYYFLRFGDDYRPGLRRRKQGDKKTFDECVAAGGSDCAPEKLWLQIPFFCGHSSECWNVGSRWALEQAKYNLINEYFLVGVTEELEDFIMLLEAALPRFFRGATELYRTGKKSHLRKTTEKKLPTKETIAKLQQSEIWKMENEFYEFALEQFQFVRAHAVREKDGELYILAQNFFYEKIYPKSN
The assay is described as follows: BLI equilibrium binding, non-glyc-HS2ST H142K. The following applies: BLI saturation binding curves, n = 3, ± standard error of fit. From the text: (§1) To assess whether the inhibitory compounds interact with the active site, point mutations were introduced in non-glyc-HS2ST (Fig. 4a). Four mutants of the catalytic residue (H142A/E/R/K) were created, along with a mutation of the residue that facilitates 2-O-sulfation of IdoA residues (R189A)[27]. Additionally, a negative control (NC) was generated containing multiple mutations of positively charged residues (R189A, R80E, and R184E) that reduced the net charge of each protein monomer by 5. The extent that the mutations affected affinity provided an indication that the ligand had been bound in the active site (Table 1 and Supplementary Fig. 1). While R189A markedly diminished the affinity for all compounds, the NC mutations reduced affinity to immeasurable levels. Removal of the catalytic side chain (H142A) enhanced the affinity of each compound, compared to the WT, by approximately 2–3-fold. Addition of a positive charge at this location (H142K/R) further enhanced the affinity for each compound, so much so that a KD value could be measured even for 2. The H142E mutation diminished the affinity of 5 by half compared to WT, but its effects were less significant for binding to 3 or 4.
(§2) The chicken HS2ST-Maltose Binding Protein (MBP) fusion protein was expressed and purified according to previous studies. The fusion protein was transformed into E. coli Origami B (DE3) cells, cultured at 37 °C until OD600 reached 0.5, then induced with isopropyl-β-D-thiogalactopyranoside and allowed to grow overnight at 20 °C. Cells were sonicated, followed by a two-step purification procedure. Whole-cell supernatant was passed through an amylose column with Tris buffer (25 mM Tris, 500 mM NaCl, pH 7.5). An elution buffer consisted of Tris Buffer with 40 mM Maltose. The amylose column eluent was concentrated and loaded on a Superdex 200 Increase 10/300 GL with PBS buffer (10 mM sodium phosphate, 150 mM NaCl, pH 7.8) to separate trimeric protein from aggregate and independent MBP (Supplementary Fig. 4). All reported mutations formed homotrimeric complexes according to the SEC profiles, including the negative control (NC = R189A/R80E/R184E). Protein concentration was assessed via UV at 280 nm (MW of trimer ~210 KDa, extinction coefficient ~119,000 M^−1 cm^−1 according to ExPASy ProtParam webtool[56]). The trimeric protein preparation was adjusted to 5% glycerol and stored at −20 °C until use. Additional non-glyc-HS2ST constructs were created with the Q5® Mutagenesis kit (New England Biolabs Inc.; cat. # E0554S) and sequenced at the Georgia Genomics Facility at the University of Georgia.
(§3) The Octet® RED96 system (FortéBio Inc.) was employed to detect the affinity of the enzymes for specific HS targets. […]

The target in another assay is T2, non-glyc-HS2ST H142R (Gallus gallus, UniProt Q76KB1, H142R).
T2 construct: made in house; host or cells: E. coli Origami B (DE3)
T2 sequence (Q76KB1 69-356 H142R limits assumed): T1 sequence (Q76KB1 69-356 H142K limits assumed) with K74R
The assay is described as follows: BLI equilibrium binding, non-glyc-HS2ST H142R. The following applies: BLI saturation binding curves, n = 3, ± standard error of fit.
Excerpt: as §1, §2, §3

The target of the next assay is T3, non-glyc-HS2ST H142E (Gallus gallus, UniProt Q76KB1, H142E).
T3 construct: made in house; host or cells: E. coli Origami B (DE3)
T3 sequence (Q76KB1 69-356 H142E limits assumed): T1 sequence (Q76KB1 69-356 H142K limits assumed) with K74E
The assay is described as follows: BLI equilibrium binding, non-glyc-HS2ST H142E. To be noted: for Kd: BLI saturation binding curves, n = 3, ± standard error of fit, — = response too weak to fit.
Excerpt: as §1, §2
The Octet® RED96 system (FortéBio Inc.) was employed to detect the affinity of the enzymes for specific HS targets. Due to the small size of the glycan and the deep HS2ST binding cavity, the glycan and protein were treated as ligand and analyte, respectively. Varyingly sulfated HS fragments conjugated to biotin linkers were purchased from Glycan Therapeutics Inc. with purities greater than 93% according to HPLC (sequences located in Supplementary Table 1). The glycans were immobilized onto streptavidin (SA) labeled biosensors (FortéBio; cat. #18–5019) at 0.5 µg/mL. Experiments were performed at 25 °C in PBS Buffer (10 mM sodium phosphate, 150 mM NaCl, pH 7.8) with a final concentration of 1X Pall Kinetics buffer (FortéBio Inc; cat. #18–1092). Fresh biosensors and protein samples were used for each measurement (no regeneration step). […]

The next assay has as its target T4, non-glyc-HS2ST R189A (Gallus gallus, UniProt Q76KB1, R189A).
T4 construct: made in house; host or cells: E. coli Origami B (DE3)
T4 sequence (Q76KB1 69-356 R189A limits assumed): T1 sequence (Q76KB1 69-356 H142K limits assumed) with K74H, R121A
The assay is described as follows: BLI equilibrium binding, non-glyc-HS2ST R189A. The following applies: BLI saturation binding curves, n = 3, ± standard error of fit; — = response too weak to fit.
Excerpt: as §1, §2, §3

The Kd is the free concentration of one partner at which half of the binding sites on the other are occupied at equilibrium, for simple one-to-one binding. With “GlcNS6S-GlcA-GlcNS6S-GlcA-GlcNS6S-GlcA~ [Compound 5]”, the Kd is 22 ± 2 nM on non-glyc-HS2ST H142K, 13 ± 1 nM at non-glyc-HS2ST H142R, 140 ± 11 nM on non-glyc-HS2ST H142E and over 500 nM at non-glyc-HS2ST R189A. Besides, at non-glyc-HS2ST H142E (non-glyc-HS2ST H142E versus WT, BLI), the “Diminution of affinity by H142E compared to WT” value is given as “half”.

On to “GlcNS6S-GlcA-GlcNS3S6S-IdoA2S-GlcNS6S-GlcA~ [Compound 4]”, for which the Kd at non-glyc-HS2ST H142K turned out to be 11 ± 2 nM; at non-glyc-HS2ST H142R, 10 ± 1 nM; on non-glyc-HS2ST H142E it was 19 ± 3 nM; at non-glyc-HS2ST R189A it was 63 ± 5 nM.

Turning to “GlcNS6S-GlcA-GlcNS6S-IdoA2S-GlcNS6S-GlcA~ [Compound 3]”, the Kd on non-glyc-HS2ST H142K was 15 ± 2 nM; at non-glyc-HS2ST H142R, 12 ± 1 nM; at non-glyc-HS2ST H142E, 41 ± 4 nM; on non-glyc-HS2ST R189A, 448 ± 124 nM.

Take “GlcNS-GlcA-GlcNS-IdoA2S-GlcNS-GlcA~ [Compound 2]”: the equilibrium dissociation constant (Kd) is 198 ± 34 nM at non-glyc-HS2ST H142K, 136 ± 20 nM at non-glyc-HS2ST H142R, over 500 nM on non-glyc-HS2ST H142E and over 500 nM at non-glyc-HS2ST R189A.
